In one data set the target is T1, α2C-adrenoceptor (Homo sapiens, UniProt P18825).
T1 sequence (P18825 1-462): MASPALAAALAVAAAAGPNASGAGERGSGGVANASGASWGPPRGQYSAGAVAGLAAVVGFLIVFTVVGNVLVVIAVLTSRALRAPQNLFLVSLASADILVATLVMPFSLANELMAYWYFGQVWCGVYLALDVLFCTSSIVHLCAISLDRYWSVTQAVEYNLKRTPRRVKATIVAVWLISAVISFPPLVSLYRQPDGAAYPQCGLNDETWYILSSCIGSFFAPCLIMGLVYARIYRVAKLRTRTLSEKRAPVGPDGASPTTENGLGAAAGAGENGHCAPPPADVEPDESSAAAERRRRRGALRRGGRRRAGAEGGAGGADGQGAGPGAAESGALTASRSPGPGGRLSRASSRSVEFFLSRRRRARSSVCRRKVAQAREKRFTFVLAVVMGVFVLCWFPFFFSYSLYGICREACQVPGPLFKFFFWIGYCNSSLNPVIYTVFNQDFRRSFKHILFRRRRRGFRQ
Particulars: described in J. Pharmacol. Exp. Ther. 271, 1558 (1994) and Proc. Natl. Acad. Sci. USA 85, 6301 (1988); cited from earlier work.

In data set [1] the test system is MPTP-treated common marmoset. The data set is described as follows: Anti-dyskinesia activity: LID score in MPTP-treated common marmoset model with repeated L-DOPA. It is filed as in vivo. Particulars: L-DOPA-induced dyskinesia (LID) score, test compound plus L-DOPA vs vehicle plus L-DOPA, 4 animals per group. An excerpt: Parkinson's disease is characterized by degeneration and neuronal cell death of the nigrostriatal dopaminergic neurons. In primates, treatment with a dopamine neurotoxin, 1-methyl-4-phenyl-1,2,3,6-tetrahydropyridine (hereinafter referred to as “MPTP”), causes selective degeneration and loss of the nigrostriatal dopaminergic neurons, showing akinesia, rigidity, etc. These MPTP-treated primates are known as a model of Parkinson's disease [Proceedings of the National Academy of Science USA, Vol. 80, p. 4546 (1983)]. Common marmoset belongs to Anthropoidea and is known to show Parkinsonian symptoms caused by MPTP treatment as in the case of other Anthropoidea [Neuroscience Letter, Vol. 57, p. 37 (1985)). On the other hand, current treatment for Parkinson's disease is based primarily on dopamine replacement therapy by administration of L-DOPA. The administration of L-DOPA is effective treatment of symptoms associated with Parkinson's disease (anti-Parkinson activity). However, the long-term therapy using L-DOPA is known to cause loss of medicinal efficacy (wearing off and on-off), dyskinesia, psychosis, etc. Particularly, L-DOPA-induced dyskinesia (hereinafter referred to as “LID”) has become an issue due to the frequency of its development and the pain of the patients. […] 731 (1995)].
This test was carried out using 4 animals per group of female and male common marmosets of 5 to 7 years of age (300 to 375 g in body weight, CLEA Japan). MPTP (RBI) was dissolved in physiological saline for injection (Otsuka Pharmaceutical Co., Ltd.) and subcutaneously administered to each common marmoset once a day for 5 days in a dose of 2.0 mg/kg. More than six weeks after the administration, animals showing chronic symptoms of Parkinson's disease were used to prepare a model of dyskinesia. […] The locomotor activity was measured at 10-minute intervals for 12 hours by a computer-controlled automatic measuring apparatus. […]

Consider `COc1ccccc1N1CCN(CCN2C(=O)c3ccccc3C(C)(C)C2=O)CC1` [ARC239], for which, on α2C-adrenoceptor, the “affinity to α2C-adrenoceptor” value is recorded as “having an affinity to α2C-adrenoceptor”. In data set [1], the anti-dyskinesia activity entry is “showed anti-dyskinesia activity”. As to `CC1c2ccccc2CN1CC1=NCCN1` (stereo not shown) [BRL44408], at α2C-adrenoceptor, the “affinity to α2C-adrenoceptor” value was “low affinity”. For the same compound, the anti-dyskinesia activity result in data set [1] was “did not show anti-dyskinesia activity”.

`Nc1ncc(CN2CCN(Cc3ccncc3)CC2)c2nc(-c3ccco3)nn12` [Compound 35, 5-Amino-2-(2-furyl)-8-[4-(4-pyridylmethyl)piperazin-1-ylmethyl][1,2,4]triazolo[1,5-c]pyrimidine] displayed a melting point of 168.7 to 169.2 °C.

As to `c1ccc2c(c1)OCC(C1=NCCN1)O2` (stereo not shown) [idazoxan], the “affinity to α2C-adrenoceptor” value at α2C-adrenoceptor was “having an affinity to α2C-adrenoceptor”. In addition, the anti-dyskinesia activity entry in data set [1] was “showed anti-dyskinesia activity”.

The record behind these values is patent US20040110826A1, “Receptor Antagonists” (priority 2001, published 2004).
